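Exposure lasted 48 hours, with cells grown in 96-well plates and compounds tested at five concentrations. GI50: concentration for 50% inhibition of growth.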 Active and inactive are the calls of the source. Rule as the data show it: active = GI50 up to about 1.1 µM and inactive = higher.
Columns and labels:
Experiment in all cases: NCI-60 cell line screen, 48 h
[1] = system: SNB-19
[2] = system: SK-OV-3
[3] = system: OVCAR-4
[4] = system: LOX IMVI
[5] = system: IGROV-1
[6] = system: MOLT-4
[7] = system: CAKI-1
[8] = system: COLO 205
[9] = system: HL-60
[10] = system: SF-295
[11] = system: DMS-114
[12] = system: A498
[13] = system: A549
[14] = system: Malme-3M
[15] = system: KM-20L2
[16] = system: KM12
[17] = system: OVCAR-8
[18] = system: HCC 2998
[19] = system: CCRF-CEM
[20] = system: SK-MEL-2
[21] = system: UO-31
[22] = system: HT-29
[23] = system: K562
[24] = system: HOP-92
[25] = system: NCI-H226
[26] = system: RXF 631
[27] = system: HCT-15
[28] = system: NCI-H522
[29] = system: HOP-18
[30] = system: SF-539
[31] = system: SNB-78
[32] = system: NCI-H23
[33] = system: UACC-62
[34] = system: UACC-257
[35] = system: 786-0
[36] = system: OVCAR-5
[37] = system: DMS-273
[38] = system: OVCAR-3
[39] = system: TK-10
[40] = system: LXFL 529
[41] = system: SF-268
[42] = system: HCT-116
[43] = system: RPMI-8226
[44] = system: SK-MEL-28
[45] = system: M19-MEL
[46] = system: ACHN
[47] = system: SNB-75
[48] = system: SW-620
[49] = system: SN12C
[50] = system: EKVX
[51] = system: RXF 393
[52] = system: U-251
[53] = system: SK-MEL-5
[54] = system: DLD-1
[55] = system: M14
[56] = system: NCI-H460
[57] = system: SR

Question: What does the source list for `CC1c2[nH]c3ccccc3c2CCN1O` (stereo unspecified)?
Answer: GI50 [1]: > 100 µM (inactive); GI50 [2]: > 100 µM (inactive); GI50 [3]: > 100 µM (inactive); GI50 [4]: > 100 µM (inactive); GI50 [5]: > 100 µM (inactive); GI50 [6]: > 100 µM (inactive); GI50 [7]: > 100 µM (inactive); GI50 [8]: > 100 µM (inactive); GI50 [9]: > 100 µM (inactive); GI50 [10]: > 100 µM (inactive); GI50 [11]: > 100 µM (inactive); GI50 [12]: > 100 µM (inactive); GI50 [13]: > 100 µM (inactive); GI50 [14]: > 100 µM (inactive); GI50 [15]: > 100 µM (inactive); GI50 [16]: > 100 µM (inactive); GI50 [17]: > 100 µM (inactive); GI50 [18]: > 100 µM (inactive); GI50 [19]: > 100 µM (inactive); GI50 [20]: > 100 µM (inactive); GI50 [21]: 29.4 µM (inactive); GI50 [22]: > 100 µM (inactive); GI50 [23]: > 100 µM (inactive); GI50 [24]: > 100 µM (inactive); GI50 [25]: 23.1 µM (inactive); GI50 [26]: > 100 µM (inactive); GI50 [27]: > 100 µM; GI50 [28]: > 100 µM (inactive); GI50 [29]: > 100 µM (inactive); GI50 [30]: > 100 µM (inactive); GI50 [31]: > 100 µM (inactive); GI50 [32]: > 100 µM (inactive); GI50 [33]: > 100 µM (inactive); GI50 [34]: > 100 µM (inactive); GI50 [35]: > 100 µM (inactive); GI50 [36]: > 100 µM (inactive); GI50 [37]: > 100 µM (inactive); GI50 [38]: > 100 µM (inactive); GI50 [39]: > 100 µM (inactive); GI50 [40]: > 100 µM (inactive); GI50 [41]: > 100 µM (inactive); GI50 [42]: > 100 µM (inactive); GI50 [43]: > 100 µM (inactive); GI50 [44]: > 100 µM (inactive); GI50 [45]: > 100 µM (inactive); GI50 [46]: > 100 µM (inactive); GI50 [47]: 68.5 µM (inactive); GI50 [48]: > 100 µM (inactive); GI50 [49]: > 100 µM (inactive); GI50 [50]: > 100 µM (inactive); GI50 [51]: > 100 µM (inactive); GI50 [52]: > 100 µM (inactive); GI50 [53]: > 100 µM (inactive); GI50 [54]: > 100 µM (inactive); GI50 [55]: > 100 µM (inactive)

Question: `COC(=O)C1Cc2c(n(C)c3ccccc23)C(c2ccccc2)N1` (stereo unspecified) was tested. Which GI50 [1] did it give?
Answer: > 100 µM (inactive)

Question: What about the GI50 [2] of the same molecule?
Answer: > 100 µM (inactive)

Question: What about the GI50 [3] of the same molecule?
Answer: 50.5 µM (inactive)

Question: What about the GI50 [4] of the same molecule?
Answer: 78.7 µM (inactive)

Question: And the GI50 [5]?
Answer: 45.8 µM (inactive)

Question: And the GI50 [56]?
Answer: 60.5 µM (inactive)

Question: What about the GI50 [6] of the same molecule?
Answer: 29.6 µM (inactive)

Question: What about the GI50 [7] of the same molecule?
Answer: > 100 µM (inactive)

Question: And the GI50 [8]?
Answer: 23 µM (inactive)

Question: What about the GI50 [9] of the same molecule?
Answer: 10.1 µM (inactive)

Question: And the GI50 [10]?
Answer: > 100 µM (inactive)

Question: And the GI50 [11]?
Answer: 21.8 µM (inactive)

Question: And the GI50 [12]?
Answer: 48.4 µM (inactive)

Question: And the GI50 [13]?
Answer: > 100 µM (inactive)

Question: And the GI50 [14]?
Answer: > 100 µM (inactive)

Question: What about the GI50 [15] of the same molecule?
Answer: 57.8 µM (inactive)

Question: And the GI50 [16]?
Answer: > 100 µM (inactive)

Question: And the GI50 [17]?
Answer: > 100 µM (inactive)

Question: What about the GI50 [18] of the same molecule?
Answer: 49.4 µM (inactive)

Question: And the GI50 [19]?
Answer: 52.1 µM (inactive)

Question: What about the GI50 [20] of the same molecule?
Answer: 47.6 µM (inactive)

Question: What about the GI50 [21] of the same molecule?
Answer: > 100 µM (inactive)

Question: And the GI50 [22]?
Answer: 18.9 µM (inactive)

Question: What about the GI50 [23] of the same molecule?
Answer: 47.6 µM (inactive)

Question: What about the GI50 [24] of the same molecule?
Answer: > 100 µM (inactive)

Question: And the GI50 [25]?
Answer: 22.6 µM (inactive)

Question: And the GI50 [26]?
Answer: > 100 µM (inactive)

Question: And the GI50 [27]?
Answer: 14.2 µM

Question: What about the GI50 [28] of the same molecule?
Answer: 16.9 µM (inactive)

Question: And the GI50 [57]?
Answer: 67.9 µM (inactive)

Question: And the GI50 [29]?
Answer: > 100 µM (inactive)

Question: And the GI50 [30]?
Answer: > 10 µM (inactive)

Question: What about the GI50 [31] of the same molecule?
Answer: > 100 µM (inactive)

Question: What about the GI50 [32] of the same molecule?
Answer: > 100 µM (inactive)

Question: And the GI50 [33]?
Answer: 62.8 µM (inactive)

Question: And the GI50 [34]?
Answer: 15.2 µM (inactive)

Question: And the GI50 [35]?
Answer: 80 µM (inactive)

Question: And the GI50 [36]?
Answer: > 100 µM (inactive)

Question: And the GI50 [37]?
Answer: 38.8 µM (inactive)

Question: What about the GI50 [38] of the same molecule?
Answer: 53 µM (inactive)

Question: What about the GI50 [39] of the same molecule?
Answer: > 100 µM (inactive)

Question: And the GI50 [40]?
Answer: 33.7 µM (inactive)

Question: What about the GI50 [41] of the same molecule?
Answer: > 100 µM (inactive)

Question: What about the GI50 [42] of the same molecule?
Answer: 34.4 µM (inactive)

Question: And the GI50 [43]?
Answer: 63.7 µM (inactive)

Question: What about the GI50 [44] of the same molecule?
Answer: > 100 µM (inactive)

Question: And the GI50 [45]?
Answer: 45.6 µM (inactive)

Question: What about the GI50 [46] of the same molecule?
Answer: 39.3 µM (inactive)

Question: What about the GI50 [47] of the same molecule?
Answer: > 100 µM (inactive)

Question: What about the GI50 [48] of the same molecule?
Answer: > 100 µM (inactive)

Question: What about the GI50 [49] of the same molecule?
Answer: > 100 µM (inactive)

Question: And the GI50 [50]?
Answer: 92.3 µM (inactive)

Question: What about the GI50 [52] of the same molecule?
Answer: 48 µM (inactive)

Question: What about the GI50 [53] of the same molecule?
Answer: 21.1 µM (inactive)

Question: And the GI50 [54]?
Answer: > 10 µM (inactive)

Question: What about the GI50 [55] of the same molecule?
Answer: > 100 µM (inactive)
